Source: paper PMC10073126, “Levosimendan inhibits disulfide tau oligomerization and ameliorates tau pathology in Tau^P301L-BiFC mice” (Experimental & Molecular Medicine, 2023)

What was measured:
Tau^P301L-BiFC mice [1] = assay: AT8 immunofluorescence of brain tissue slices; assay type: in vivo, mouse; settings: 5 mg/kg i.p., 4 months
Method: (§1) For drug administration, LMTM and levosimendan were dissolved in PBS containing 40% polyethylene glycol (PEG; Sigma). Nine-month-old Tau^P301L-BiFC mice were intraperitoneally administered each drug for 4 months, three times a week, at a dosage of 5 mg/kg (n = 11 per group). Vehicle-treated Tau^P301L-BiFC mice and age-matched wild-type mice were used as control groups. Behavioral assessments were conducted as described below for one month from the end of drug administration. All mice were sacrificed at the age of 14 months for pathological analysis.
For immunofluorescence image analysis, brain tissue slices (n = 6–8 per group) were stained with AT8 (pS202/T205) antibody (1:200, Invitrogen). The primary antibody was detected using Alexa Flour 633-conjugated anti-mouse antibody (1:500, Abcam). Fluorescence images (λex = 620–640 nm and λem = 650–700 nm) were acquired using Axio Scan. Z1 (ZEISS).

Tau^P301L-BiFC mice [2] = assay: Passive avoidance test; assay type: in vivo, mouse; settings: 5 mg/kg i.p., three times a week, 4 months; compared with vehicle-treated TG
Method: as §1
The passive avoidance test was performed as described previously[44] with the following modifications. Mice (n = 8 per group) were adapted in the passive avoidance chamber (Gemini) for 10 min and then returned to their home cages. The chamber is composed of a light compartment and a dark compartment separated by a connecting gate. The following day, the mice were placed in the light compartment, and the gate was opened after 30 s. When mice entered the dark compartment, the gate was closed, and an electrical foot shock (3 mA) was delivered for 2 s. The mice were left in the dark compartment for 30 s after the foot shock so that they associated the environment with the aversive stimulus. The mice were then returned to their home cages. […] The step-through latency, the time required for mice to enter the dark compartment, was measured up to 540 s.

Tau^P301L-BiFC mice [3] = assay: BiFC fluorescence imaging of brain tissue sections; assay type: in vivo, mouse; settings: 5 mg/kg i.p., 4 months; for Tau-BiFC intensity in the hippocampus compared to vehicle-treated group: hippocampal CA1; for Tau-BiFC intensity in the cortex compared to vehicle-treated group: somatosensory cortex layer V
Method: as §1
Brain tissue sections (n = 8 per group) were mounted onto slides. To reduce autofluorescence, brain tissue sections were stained with Sudan Black B solution (70% ethanol containing 0.05% Sudan Black B) for 10 min, washed three times with PBS containing 0.1% Triton X-100 (Sigma), and then washed with distilled water. For counterstaining of nuclei, brain tissues were stained with Hoechst (0.5 μg/mL) for 30 min. BiFC fluorescence (λex = 460–490 nm and λem = 500–550 nm) images were acquired using Axio Scan. Z1 (ZEISS). For quantitative analysis, the mean BiFC fluorescence intensity was measured in the somatosensory cortex (layer V) and hippocampal CA1 from AP;−1.82. To normalize the background fluorescence between the brain samples, the habenular region was used as an internal control. Using ImageJ software (NIH), the region of interest was masked, and the fluorescence intensity value was calculated. Data are shown as the average and standard deviation of the mean fluorescence intensities of brain images from six to eight animals.

Tau^P301L-BiFC mice [4] = assay: Tau immunoblot of RIPA-soluble and RIPA-insoluble brain lysates; assay type: in vivo, mouse; settings: 5 mg/kg i.p., 4 months; for Level of disulfide-linked tau oligomers in the brain (nonreducing SDS-PAGE): RIPA-soluble brain lysates
Method: Band intensity was quantified using ImageJ software (NIH). All data were normalized to β-actin.
as §1
Brains were weighed and suspended in RIPA lysis buffer (Sigma) containing protease and phosphatase inhibitor cocktails. Then, tissues were mechanically disrupted using a cordless mortar and pestle (Sigma) and incubated at 4 °C for 2 h with shaking. The homogenates were centrifuged at 20,000 × g at 4 °C for 20 min. The supernatants were collected as RIPA-soluble fractions and stored at −80 °C. To prepare RIPA-insoluble fractions, the remaining pellets were washed once with RIPA lysis buffer containing 1 M sucrose, resuspended in 2% SDS solution (1 mL per gram of tissue) and incubated at RT for 1 h. The mixtures were centrifuged at 20,000 × g for 1 min at RT. The supernatant was collected as RIPA-insoluble fractions and preserved at −80 °C.

tauK18 = biological target: T1, tauK18 (Homo sapiens, UniProt P10636); assay: TauK18 oligomerization assay in vitro (SDS-PAGE); assay type: biochemical; settings: 5 h, nonreducing SDS-PAGE, DMSO control 50 ± 1.1%
T1 construct: under in vitro conditions using a purified tauK18 fragment; 6xHis; made in house; host or cells: E. coli BL21 (DE3)
T1 sequence (P10636 561-685 limits assumed): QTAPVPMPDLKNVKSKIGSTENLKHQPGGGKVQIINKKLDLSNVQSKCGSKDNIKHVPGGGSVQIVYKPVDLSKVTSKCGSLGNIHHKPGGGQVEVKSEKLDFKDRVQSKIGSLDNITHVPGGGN
Method: To induce tau oligomerization, tauK18 (0.5 mg/mL dissolved in PBS, pH 7.4) was incubated with each drug in the presence of DTT (100 μM) and heparin (0.1 mg/mL) at RT for 5 h with vigorous shaking. Then, tau oligomers were separated on 4–20% SDS‒PAGE gels under reducing and nonreducing conditions and visualized by Coomassie blue staining.

Tau-BiFC cells = assay: Flow cytometry analysis of tau-BiFC cells; assay type: cell-based, human; settings: for P1: intact cell population out of total cells: 24 h; for Median BiFC fluorescence intensity of BiFC-responding cells: BiFC^ON control […] ± 62, basal 332 ± 110
Method: After 24 h, BiFC cells were collected and subjected to flow cytometry analysis using a BD FACSLyric^TM cytometer (BD Biosciences). A total of 50,000 events were acquired per sample. All samples were gated using the same gating tree and gate positions: side scatter area (SSC-A) vs. forward scatter area (FSC-A) for viable and singlet cell populations. BiFC fluorescence was excited by a 488 nm wave laser and collected through a 527/32 bandpass filter.

Tau^P301L-BiFC mice [5] = assay: Y-maze test; assay type: in vivo, mouse; settings: 5 mg/kg i.p., three times a week, 4 months; vehicle TG 52.8 ± 2.6%
Method: as §1
Mice (n = 11 per group) were tested for spontaneous alternation behavior in a Y-shaped maze (60 cm in length of each arm, 20 cm in depth) using a standard protocol. Spontaneous alternation for 8 min was calculated as the proportion of alternations. Alteration (%) was defined as consecutive entries in three different arms (ABCs) divided by the number of possible alterations (total arm entries minus 2)[43].

SMILES | AT8 immunoreactivity in the cortex compared to vehicle-treated group (Tau^P301L-BiFC mice [1]) | AT8 immunoreactivity in the hippocampus compared to vehicle-treated group (Tau^P301L-BiFC mice [1]) | Latency of entering the dark compartment (Tau^P301L-BiFC mice [2]) | Tau-BiFC intensity in the hippocampus compared to vehicle-treated group (Tau^P301L-BiFC mice [3]) | Tau-BiFC intensity in the cortex compared to vehicle-treated group (Tau^P301L-BiFC mice [3]) | Level of disulfide-linked tau oligomers in the brain (nonreducing SDS-PAGE) (Tau^P301L-BiFC mice [4]) | Fold change, RIPA-insoluble tau (IB: Tau5) (Tau^P301L-BiFC mice [4]; vehicle 1.00) | Fold change, RIPA-soluble tau phosphorylation at S199 (Tau^P301L-BiFC mice [4]; vehicle 1.00) | Fold change, RIPA-soluble tau phosphorylation at S396 (Tau^P301L-BiFC mice [4]; vehicle 1.00) | Fold change, RIPA-soluble total tau (IB: Tau5) (Tau^P301L-BiFC mice [4]; vehicle 1.00) | Level of disulfide-linked tau oligomers (of total tau) (tauK18; 10 μM) | Level of disulfide-linked tau oligomers (of total tau) (tauK18; 30 μM) | Level of disulfide-linked tau oligomers (of total tau) (tauK18; 100 μM) | P1: intact cell population out of total cells (Tau-BiFC cells; drug 15 μM with tauK18^P301L) | Median BiFC fluorescence intensity of BiFC-responding cells (Tau-BiFC cells; drug 15 μM with tauK18^P301L) | Percent alternation (Tau^P301L-BiFC mice [5]) | P1: intact cell population out of total cells (Tau-BiFC cells; drug 5 μM with tauK18^P301L) | Median BiFC fluorescence intensity of BiFC-responding cells (Tau-BiFC cells; drug 5 μM with tauK18^P301L)
C[C@@H]1CC(=O)NN=C1c1ccc(NN=C(C#N)C#N)cc1 [Levosimendan] | 0.4 ± 0.1 fold | 0.4 ± 0.2 fold | delayed latency or not entering the chamber | 0.4 ± 0.2 fold | 0.6 ± 01 fold | significantly decreased the high-molecular-weight oligomers | 0.5 ± 0.2 fold | 0.5 ± 0.0 fold | 0.5 ± 0.1 fold | decreased slightly | 15.0 ± 6.0% | 15.7 ± 7.8% | 12.3 ± 15.0% | 69.0% | 249 ± 59 | 70.4 ± 4.2% | – | –
CN(C)c1ccc2c(c1)Sc1cc(N(C)C)ccc1N2.CS(=O)(=O)O.CS(=O)(=O)O [LMTM, leucomethylene blue mesylate] | 0.6 ± 0.2 fold | 0.5 ± 0.2 fold | did not show significant improvement | 0.6 ± 0.1 fold | 0.7 ± 0.2 fold | did not increase or decrease | 0.7 ± 0.1 fold | 0.6 ± 0.1 fold | 0.8 ± 0.2 fold | – | – | – | 79.2 ± 0.8% | – | – | 68.9 ± 3.5% | 14.5% | 596 ± 57
